As a reminder, the EC50 is the concentration at which the effect is half-maximal.

This is an account of results in patent US20160045505A1, “COMPOUNDS AND COMPOSITIONS FOR THE TREATMENT OF PARASITIC DISEASES” (NOVARTIS AG, priority 2013, published 2016).

Experiment [1] relates to L. donovani HU3 strain in mouse peritoneal macrophages. Nature of the experiment: Assay for proliferation of Leishmania parasites in infected mouse peritoneal macrophages (SybrGreen staining, high-content imaging, 5 days). Type of experiment: cell-based, Leishmania donovani. The following applies: Leishmania donovani, Peritoneal macrophage, L. donovani in mouse peritoneal macrophages, inhibition of proliferation; read-out: L. donovani Macrophage EC50.

Experiment [2] deals with Trypanosoma cruzi amastigotes (Tulahuen strain expressing Lac-Z) cultured in 3T3 fibroblast cells. Nature of the experiment: microbe, parasite or virus in culture. Type of experiment: cell-based. The settings on record: Trypanosoma cruzi, TULAHUEN, Fibroblast, T. cruzi amastigotes in 3T3 fibroblast cells, inhibition of proliferation; read-out: T cruzi EC50.
Experiment [3] concerns Leishmania donovani axenic amastigote parasites. Briefly: Leishmania donovani axenic amastigote proliferation assay (Cell TiterGlo luminescence, 2 day incubation). The experiment is classed as cell-based. The following applies: Leishmania donovani, axenic amastigotes, inhibition of proliferation; read-out: L. donovani amastigotes EC50.
In experiment [4] the test system is Trypanosoma brucei Lister 427 strain, bloodstream form. Briefly: Assay for proliferation of kinetoplastid parasite Trypanosoma brucei (Cell Titer Glo, 48 hours). Type of experiment: cell-based. The settings on record: Trypanosoma brucei, T. brucei Lister 427 bloodstream form, inhibition of proliferation; read-out: T. brucei EC50. The method, boiled down: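 Bloodstream-form T. brucei Lister 427 in HMI-9 medium was exposed to compound (DMSO vehicle) for 48 hours at 37° C, 5% CO2. Parasite growth was read as ATP by CellTiter-Glo luminescence, with EC50 calculated from percent inhibition.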
(Cellular ATP, detected with luciferase, serves as a proxy for viable cell number.)

With `Cc1nc(C)c(C(=O)Nc2ccc(F)c(-c3cn4cc(NC(=O)CN(C)C)cnc4n3)c2)o1` [Compound 186], the EC50 in experiment [1] is 6.22 µM; in experiment [2] it was 10.2 µM; in experiment [3], 15.8 µM; in experiment [4], 0.59 µM.
The matching figures for `Cc1nc(C)c(C(=O)Nc2ccc(F)c(-c3cn4cc(NC(=O)c5ncco5)cnc4n3)c2)o1` [Compound 188]: more than 5.6 µM, 1.23 µM, 0.226 µM and 0.185 µM.
For `Cc1nc(C)c(C(=O)Nc2ccc(F)c(-c3cn4cc(NC(=O)c5ccc(CN(C)C)cc5)cnc4n3)c2)o1` [Compound 189], the EC50 stood at 15.5 µM in experiment [1], 10.7 µM in experiment [2], 9.07 µM in experiment [3] and 4.27 µM in experiment [4].
On the same counts, the results for `Cc1ncc(C(=O)Nc2cnc3nc(-c4cc(NC(=O)c5oc(C)nc5C)ccc4F)cn3c2)[nH]1` [Compound 190] are 8.48 µM, 12.2 µM, 0.775 µM and 0.244 µM.
The matching figures for `Cc1nc(C)c(C(=O)Nc2ccc(F)c(-c3cn4cc(NC(=O)C5(C)COC5)cnc4n3)c2)o1` [Compound 192]: more than 25.1 µM, more than 20 µM, 3.24 µM and 1.14 µM.
The matching figures for `Cc1nc(C)c(C(=O)Nc2ccc(F)c(-c3cn4cc(NC(=O)C5(C)CCCO5)cnc4n3)c2)o1` (stereo not shown) [Compound 193]: 0.717 µM, 1.09 µM, 0.339 µM and 0.201 µM.
Take `Cc1nc(C)c(C(=O)Nc2ccc(F)c(-c3cn4cc(NC(=O)C5CCN(C(C)C)CC5)cnc4n3)c2)o1` [Compound 194]: the EC50 in experiment [1] was more than 50 µM; in experiment [2] it was more than 20 µM; in experiment [3] it was more than 25 µM; in experiment [4] it was 29.8 µM.
As to `Cc1nc(C)c(C(=O)Nc2ccc(F)c(-c3cn4cc(NC(=O)c5ccc(CN(C)C)cn5)cnc4n3)c2)o1` [Compound 195], the EC50 in experiment [1] is 5.33 µM; in experiment [2] it was 2.04 µM; in experiment [3] it was 5.64 µM; in experiment [4], 0.463 µM.
Turning to `Cc1ncc(C(=O)Nc2ccc(F)c(-c3cn4cc(-c5ccccn5)cnc4n3)c2)o1` [Compound 198], the EC50 was 0.016 µM in experiment [1], 0.016 µM in experiment [2], 0.007 µM in experiment [3] and 0.018 µM in experiment [4].
Regarding `Cc1nc(C)c(C(=O)Nc2ccc(F)c(-c3cn4cc(F)cnc4n3)c2)o1` [Compound 199], the EC50 in experiment [1] was 6.44 µM; in experiment [2] it was 1.06 µM; in experiment [3], 0.878 µM; in experiment [4] it was 1.11 µM.
Consider `Cc1nc(C)c(C(=O)Nc2ccc(F)c(-c3cn4cc(C(F)(F)F)cnc4n3)c2)o1` [Compound 200], for which the EC50 in experiment [1] amounted to 0.631 µM; in experiment [2], 0.147 µM; in experiment [3], 0.219 µM; in experiment [4], 0.164 µM.
On to `Cc1ncc(C(=O)Nc2ccc(F)c(-c3cn4cc(C(F)(F)F)cnc4n3)c2)o1` [Compound 201], for which the EC50 in experiment [1] came to 0.208 µM; in experiment [2] it was 0.126 µM; in experiment [3], 0.058 µM; in experiment [4], 0.46 µM.
Consider `Cc1ncc(C(=O)Nc2cccc(-c3cn4cc(NC(=O)OC(C)C)cnc4n3)c2)o1` [Compound 202], for which the EC50 in experiment [1] was 2.72 µM; in experiment [2], more than 20 µM; in experiment [3] it was 0.229 µM; in experiment [4] it was 0.249 µM.
The matching figures for `CC(C)OC(=O)Nc1cnc2nc(-c3cccc(NC(=O)c4cnco4)c3)cn2c1` [Compound 203]: 13.8 µM, 10.6 µM, 0.97 µM and 1.16 µM.
On the same counts, the results for `Cc1ncoc1C(=O)Nc1cccc(-c2cn3cc(NC(=O)OC(C)C)cnc3n2)c1` [Compound 204] are 19.2 µM, 4.1 µM, 0.941 µM and 0.676 µM.
On to `Cc1nc(C)c(C(=O)Nc2ccc(F)c(-c3cn4cc(Cl)cnc4n3)c2)o1` [Compound 205], for which the concentration for a half-maximal effect (EC50) was 1.24 µM in experiment [1], 0.413 µM in experiment [2], 0.3 µM in experiment [3] and 0.352 µM in experiment [4].
On the same counts, the results for `CC(=O)Nc1cnc2nc(-c3cc(NC(=O)c4cnc(C)o4)ccc3F)cn2c1` [Compound 206] are more than 50 µM, more than 20 µM, 3.19 µM and more than 50 µM.
For `Cc1nc(C)c(C(=O)Nc2ccc(F)c(-c3cn4cc(C(F)F)cnc4n3)c2)o1` [Compound 208], the EC50 came to 0.445 µM in experiment [1], 0.1 µM in experiment [2], 0.134 µM in experiment [3] and 0.108 µM in experiment [4].
The matching figures for `Cc1ncc(C(=O)Nc2ccc(F)c(-c3cn4cc(C(F)F)cnc4n3)c2)o1` [Compound 209]: 0.317 µM, 0.13 µM, 0.087 µM and 0.169 µM.
On the same counts, the results for `Cc1nc(C)c(C(=O)Nc2ccc(F)c(-c3cn4cc(C5CCC5)cnc4n3)c2)o1` [Compound 210] are 0.085 µM, 0.031 µM, 0.047 µM and 0.034 µM.
The matching figures for `Cc1ncc(C(=O)Nc2ccc(F)c(-c3cn4cc(C5CCC5)cnc4n3)c2)o1` [Compound 211]: 0.055 µM, 0.016 µM, 0.021 µM and 0.029 µM.
With `CNc1cnc2nc(-c3cc(NC(=O)c4oc(C)nc4C)ccc3F)cn2c1` [Compound 212], the EC50 worked out at 4.15 µM in experiment [1], 1.3 µM in experiment [2], 1.12 µM in experiment [3] and 1.01 µM in experiment [4].
Consider `CON(C)C(=O)Nc1ccc(Cl)c(-c2cn3cc(NC(=O)OC(C)C)cnc3n2)c1` [Compound 214], for which the EC50 in experiment [1] came to 0.785 µM; in experiment [2], 0.154 µM; in experiment [3] it was 0.09 µM; in experiment [4], 0.04 µM.
Take `CC(C)OC(=O)Nc1cnc2nc(-c3cc(NC(=O)N4CCOCC4)ccc3Cl)cn2c1` [Compound 216]: the EC50 in experiment [1] was more than 50 µM; in experiment [2], 11.5 µM; in experiment [3] it was 4.43 µM; in experiment [4], 3.13 µM.
On the same counts, the results for `CC(C)OC(=O)Nc1cnc2nc(-c3cc(NC(=O)N4CCNC4=O)ccc3Cl)cn2c1` [Compound 217] are more than 50 µM, 7.06 µM, more than 25 µM and more than 50 µM.
The matching figures for `CC(C)OC(=O)Nc1cnc2nc(-c3cc(NC(=O)N(C)CC(F)(F)F)ccc3F)cn2c1` [Compound 222]: 0.424 µM, 0.419 µM, 0.109 µM and 0.067 µM.
The matching figures for `Cc1nc(C)c(C(=O)Nc2ccc(F)c(-c3cn4cc(NC(=O)N5CCNC5=O)cnc4n3)c2)o1` [Compound 224]: more than 50 µM, more than 20 µM, 1.41 µM and 0.757 µM.
Regarding `CN(C)C(=O)Nc1ccc(F)c(-c2cn3cc(Cl)cnc3n2)c1` [Compound 225], the EC50 in experiment [1] is 8.25 µM; in experiment [2], 1.2 µM; in experiment [3] it was 1.61 µM; in experiment [4], 0.468 µM.
The matching figures for `CC(C)OC(=O)Nc1cnc2nc(-c3cc(NC(=O)N4CC[C@H](F)C4)ccc3F)cn2c1` [Compound 227]: more than 50 µM, 4.91 µM, 3.74 µM and 4.37 µM.
On the same counts, the results for `CC(C)OC(=O)Nc1cnc2nc(-c3cc(NC(=O)N(C(C)C)C(C)C)ccc3F)cn2c1` [Compound 228] are 19.5 µM, 9.99 µM, more than 25 µM and 34.5 µM.
On the same counts, the results for `CC(C)OC(=O)Nc1cnc2nc(-c3cc(NC(=O)N4CC[C@@H](F)C4)ccc3F)cn2c1` [Compound 229] are 2.82 µM, 11 µM, 0.884 µM and 0.776 µM.
For the molecule `CN(C)C(=O)Nc1ccc(F)c(-c2cn3cc(F)cnc3n2)c1` [Compound 230], the EC50 is 11.7 µM in experiment [1], 1.31 µM in experiment [2], 2.73 µM in experiment [3] and 0.323 µM in experiment [4].
Take `O=C(Nc1ccc(F)c(-c2cn3cc(F)cnc3n2)c1)N1CC(F)C1` [Compound 231]: the EC50 came to 1.72 µM in experiment [1], 0.42 µM in experiment [2], 0.307 µM in experiment [3] and 0.313 µM in experiment [4].
On the same counts, the results for `O=C(Nc1ccc(F)c(-c2cn3cc(F)cnc3n2)c1)N1CCC1` [Compound 232] are 1.65 µM, 0.384 µM, 0.381 µM and 0.203 µM.
Consider `O=C(Nc1ccc(F)c(-c2cn3cc(F)cnc3n2)c1)N1CC(F)(F)C1` [Compound 233], for which the concentration giving a half-maximal response (EC50) in experiment [1] was found to be 2.05 µM; in experiment [2] it was 0.754 µM; in experiment [3] it was 0.29 µM; in experiment [4] it was 0.326 µM.
The matching figures for `O=C(Nc1ccc(F)c(-c2cn3cc(F)cnc3n2)c1)N1CC[C@@H](F)C1` [Compound 234]: 0.741 µM, 0.155 µM, 0.219 µM and 0.151 µM.
`O=C(Nc1ccc(F)c(-c2cn3cc(Cl)cnc3n2)c1)N1CC(F)(F)C1` [Compound 235]: the EC50 in experiment [1] turned out to be 0.821 µM; in experiment [2], 0.433 µM; in experiment [3], 0.215 µM; in experiment [4], 0.165 µM.
